Consider 1 molecule from publication PMC6934184, “Selective DNA-PKcs inhibition extends the therapeutic index of localized radiotherapy and chemotherapy” (The Journal of Clinical Investigation, 2019).

The assay has as its target T1, TESK2 (Homo sapiens, UniProt Q96S53).
T1 construct: purchased Thermo Fisher Scientific (Life Technologies) SelectScreen
In words: SelectScreen LanthaScreen. Type of assay: binding. To be noted: read-out: % displacement. Put shortly: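 NU5455 was profiled across the SelectScreen Broad panel of kinase activity and binding assays. Z'LYTE reactions such as CSF1R ran at apparent Km ATP, while the Adapta CAMK1 assay used ATP listed as 10. Values are given as percent.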

T1 sequence (Q96S53 whole entry): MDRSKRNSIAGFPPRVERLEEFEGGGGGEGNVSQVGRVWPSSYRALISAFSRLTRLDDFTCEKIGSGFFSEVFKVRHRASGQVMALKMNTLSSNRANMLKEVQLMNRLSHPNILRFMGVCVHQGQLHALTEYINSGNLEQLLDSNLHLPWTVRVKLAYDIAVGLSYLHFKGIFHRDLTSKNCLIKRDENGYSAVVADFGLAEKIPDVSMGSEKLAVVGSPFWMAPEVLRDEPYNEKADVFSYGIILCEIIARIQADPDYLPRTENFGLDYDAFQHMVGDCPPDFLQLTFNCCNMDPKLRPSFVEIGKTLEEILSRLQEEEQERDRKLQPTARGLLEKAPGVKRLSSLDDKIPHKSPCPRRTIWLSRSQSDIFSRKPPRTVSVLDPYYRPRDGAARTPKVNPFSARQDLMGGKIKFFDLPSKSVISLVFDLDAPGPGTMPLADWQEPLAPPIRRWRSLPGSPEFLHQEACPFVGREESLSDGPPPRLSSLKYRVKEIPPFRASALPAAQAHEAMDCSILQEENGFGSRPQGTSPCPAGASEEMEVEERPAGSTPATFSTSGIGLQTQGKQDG

`CN(C(=O)CN1CCOCC1)c1ccc2sc3c(-c4cccc5c(=O)cc(N6CC7CCC(C6)O7)oc45)cccc3c2c1` [NU5455]: the inhibition at 1 µM is 2.7%.
